Test results as given in the supplement of paper PMC6045584.
± gives the standard deviation of the averaged measurements.

How the values were obtained:
SAPACITABINE = compound: CCCCCCCCCCCCCCCC(=O)Nc1ccn([C@@H]2O[C@H](CO)[C@@H](O)[C@@H]2C#N)c(=O)n1 [SAPACITABINE]; assay: surviving fraction relative to DMSO-only wells; higher = less growth inhibition; conditions: exposure time: 5 days
In short: (§1)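 Viability was scored with CellTiter-Glo luminescence and normalised to the median of DMSO-only wells as surviving fraction. Beforehand, log-phase tumour cell lines were seeded at 250–500 cells per well in 384-well plates, allowed 24 hours, and exposed continuously for five days to inhibitors at 0.5, 1, 5, 10, 50, 100, 500 and 1000 nM. Only lines whose three screens gave replicate Pearson r >0.7 and median Z' >0.3 were kept.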

SNX-5422 = compound: CC1(C)CC(=O)c2c(C(F)(F)F)nn(-c3ccc(C(N)=O)c(N[C@H]4CC[C@H](OC(=O)CN)CC4)c3)c2C1 [SNX-5422]; assay: as above; conditions: exposure time: 5 days
In short: as §1

Row | Test System | surviving fraction (SAPACITABINE; 0.5 nM) | surviving fraction (SAPACITABINE; 1 nM) | surviving fraction (SAPACITABINE; 5 nM) | surviving fraction (SAPACITABINE; 10 nM) | surviving fraction (SAPACITABINE; 50 nM) | surviving fraction (SAPACITABINE; 100 nM) | surviving fraction (SAPACITABINE; 500 nM) | surviving fraction (SAPACITABINE; 1000 nM) | surviving fraction (SNX-5422; 0.5 nM) | surviving fraction (SNX-5422; 1 nM) | surviving fraction (SNX-5422; 5 nM) | surviving fraction (SNX-5422; 10 nM) | surviving fraction (SNX-5422; 50 nM) | surviving fraction (SNX-5422; 100 nM) | surviving fraction (SNX-5422; 500 nM) | surviving fraction (SNX-5422; 1000 nM)
1 | SCC90 HEADNECK | 0.88 ± 0.089 | 0.794 ± 0.074 | 0.862 ± 0.011 | 0.848 ± 0.053 | 1.06 ± 0.13 | 0.953 ± 0.087 | 0.853 ± 0.015 | 0.999 ± 0.064 | 1.08 ± 0.089 | 1.08 ± 0.071 | 1.12 ± 0.1 | 1.16 ± 0.077 | 0.225 ± 0.08 | 0.155 ± 0.047 | 0.0307 ± 0.0061 | 0.0383 ± 0.0015
2 | S68 BREAST | 0.821 ± 0.029 | 0.642 ± 0.021 | 0.675 ± 0.066 | 0.617 ± 0.094 | 0.64 ± 0.22 | 0.462 ± 0.039 | 0.296 ± 0.032 | 0.284 ± 0.02 | 0.798 ± 0.3 | 1.09 ± 0.27 | 0.891 ± 0.2 | 0.913 ± 0.18 | 0.154 ± 0.019 | 0.128 ± 0.021 | 0.06 ± 0.0035 | 0.0703 ± 0.0051
3 | C33A CERVIX | 1.09 ± 0.078 | 0.987 ± 0.071 | 1.12 ± 0.026 | 0.981 ± 0.059 | 0.711 ± 0.08 | 0.457 ± 0.029 | 0.214 ± 0.024 | 0.142 ± 0.021 | 1.03 ± 0.086 | 0.977 ± 0.073 | 1.03 ± 0.048 | 1.01 ± 0.069 | 0.316 ± 0.025 | 0.208 ± 0.086 | 0.056 ± 0.022 | 0.0593 ± 0.025
4 | MDAMB231 BREAST | 0.91 ± 0.016 | 0.919 ± 0.022 | 0.936 ± 0.031 | 0.927 ± 0.034 | 0.936 ± 0.043 | 0.882 ± 0.053 | 0.648 ± 0.03 | 0.516 ± 0.019 | 0.971 ± 0.021 | 0.998 ± 0.034 | 1.01 ± 0.035 | 1.02 ± 0.018 | 0.65 ± 0.032 | 0.455 ± 0.03 | 0.0989 ± 0.0031 | 0.0988 ± 0.0026
5 | ASKA SYNOVIAL | 0.917 ± 0.028 | 0.783 ± 0.0061 | 0.865 ± 0.024 | 0.327 ± 0.053 | 0.911 ± 0.043 | 0.688 ± 0.044 | 0.489 ± 0.01 | 0.203 ± 0.014 | 0.957 ± 0.041 | 0.967 ± 0.015 | 0.963 ± 0.035 | 0.883 ± 0.062 | 0.461 ± 0.05 | 0.233 ± 0.01 | 0.231 ± 0.0067 | 0.293 ± 0.0035
6 | DU4475 BREAST | 0.637 ± 0.062 | 0.863 ± 0.13 | 0.743 ± 0.051 | 0.699 ± 0.12 | 0.655 ± 0.077 | 0.458 ± 0.049 | 0.16 ± 0.033 | 0.0713 ± 0.018 | 1.07 ± 0.29 | 0.979 ± 0.18 | 1.04 ± 0.17 | 1.06 ± 0.26 | 0.03 ± 0.013 | 0.0313 ± 0.0065 | 0.029 ± 0.0052 | 0.0317 ± 0.0072
7 | NY BONE | 0.923 ± 0.043 | 0.872 ± 0.042 | 0.911 ± 0.024 | 0.812 ± 0.026 | 0.368 ± 0.02 | 0.262 ± 0.011 | 0.133 ± 0.0087 | 0.147 ± 0.0076 | 0.9907 ± 0.0074 | 1.01 ± 0.04 | 1.05 ± 0.045 | 1.03 ± 0.047 | 0.086 ± 0.0061 | 0.128 ± 0.012 | 0.0563 ± 0.0047 | 0.054 ± 0.0078
8 | HOSMNG BONE | 0.96 ± 0.087 | 1.02 ± 0.032 | 1.06 ± 0.021 | 1.04 ± 0.031 | 1.12 ± 0.078 | 1.16 ± 0.016 | 0.948 ± 0.021 | 0.703 ± 0.046 | 1.02 ± 0.017 | 1 ± 0.036 | 1.01 ± 0.04 | 0.973 ± 0.018 | 0.964 ± 0.084 | 0.299 ± 0.061 | 0.12 ± 0.012 | 0.108 ± 0.0047
